These results are taken from patent US20260355323A1, “CEREBLON-RECRUITING BCL-XL/BCL-2 DUAL DEGRADERS” (University of Florida Research Foundation, Incorporated, priority 2022, published 2026).

Series [1] concerns platelets. The settings on record: animals and/or humans; cited from earlier work.
For series [2], the system named is venetoclax resistant CLL cells. Particulars: cited from earlier work.
Series [3] concerns HUVEC irradiation-induced senescent cells (IR-SC). The series is described as follows: Senolytic activity, cell viability (PrestoBlue HS), HUVEC IR-SC. Particulars: Homo sapiens, 72 h. Type of series: cell-based. Here is the method: To induce senescence in WI-38 and HUVEC, cells were subjected to x-ray irradiation at 20 Gray using X-RAD 320 biological irradiator. Following between 10 to 15 days after irradiation, senescence was induced in cells, and irradiation-induced senescent cells (IR-SC) were then used for cell viability and Western blotting tests.
(§1) WI-38 and HUVEC cells were incubated with increasing concentrations of degraders for 72 h. Cell viability was measured using PrestoBlue HS cell viability reagent.

The subject of series [4] is MOLT-4 acute lymphoblastic leukemia cells. The series is described as follows: Cell viability, tetrazolium-based MTS assay, MOLT-4. The settings on record: Homo sapiens, MOLT-4, 48 h; read-out: Anti-Cancer Activity EC50 (48 hr), MOLT-4. Here is the method: (§2) Acute lymphoblastic leukemia cells (MOLT-4 and RS4;11) were incubated with increasing concentrations of Bcl-xL/Bcl-2 degraders for 48 h. Cell viability was measured by tetrazolium-based MTS assay.

The test system of series [5] is RS4;11 acute lymphoblastic leukemia cells. The series is described as follows: Cell viability, tetrazolium-based MTS assay, RS4;11. The settings on record: Homo sapiens, RS4;11, 48 h, read-out: Anti-Cancer Activity EC50 (48 hr), RS4. Here is the method:
as §2

Series [6] deals with T1, Bcl-xL (Homo sapiens, UniProt Q07817).
T1 construct: immunoblot after 16 h degrader treatment
T1 sequence (Q07817 whole entry): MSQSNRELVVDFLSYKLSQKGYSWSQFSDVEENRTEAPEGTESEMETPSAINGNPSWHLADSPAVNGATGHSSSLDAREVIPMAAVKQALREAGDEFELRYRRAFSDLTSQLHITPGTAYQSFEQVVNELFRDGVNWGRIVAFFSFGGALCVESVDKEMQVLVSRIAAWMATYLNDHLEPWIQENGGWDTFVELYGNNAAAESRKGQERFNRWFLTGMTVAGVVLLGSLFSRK
T1 sequence (Q96SW2 whole entry partner): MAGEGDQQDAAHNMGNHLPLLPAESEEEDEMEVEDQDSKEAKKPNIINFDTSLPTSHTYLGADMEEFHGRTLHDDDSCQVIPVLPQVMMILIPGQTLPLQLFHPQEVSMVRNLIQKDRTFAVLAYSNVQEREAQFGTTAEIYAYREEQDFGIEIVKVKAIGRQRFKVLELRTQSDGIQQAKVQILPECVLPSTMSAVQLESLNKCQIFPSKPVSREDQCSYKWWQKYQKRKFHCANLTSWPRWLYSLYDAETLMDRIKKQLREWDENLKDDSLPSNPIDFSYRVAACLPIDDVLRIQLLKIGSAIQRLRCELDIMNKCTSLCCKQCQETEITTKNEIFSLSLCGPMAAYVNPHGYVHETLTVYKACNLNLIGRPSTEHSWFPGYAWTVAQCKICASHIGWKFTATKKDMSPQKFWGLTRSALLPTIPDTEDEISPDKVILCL
The series is described as follows: Bcl-xL protein degradation in Hela cells (immunoblot). Type of series: cell-based. The settings on record: 16 h. Here is the method:
(§3) Jurkat and Hela cells were incubated with increasing concentrations of test compounds for 16 h. The cells were harvested and lysed in RIPA lysis buffer supplemented with protease and phosphatase inhibitor cocktails. An equal amount of protein (20 μg/lane) was resolved on a pre-cast 4-20% SDS-PAGE gel. Proteins were subsequently transferred to NOVEX PVDF membranes by electrophoresis. The membranes were blocked in blocking buffer (5% non-fat dry milk in TBS-T), and incubated with primary antibodies (at optimized concentrations) overnight at 4° C. After three washings in TBS-T, the membranes were incubated with an appropriate FIRP-conjugated secondary antibody for 1 h at room temperature. After extensive washing for three times, the proteins of interest were detected with ECL western blotting detection reagents and recorded with autoradiography (Pierce Biotech, Rockford, IL, USA). The primary antibodies for Bcl-xL (Cat #2762), Bcl-2 (Cat #2872), Bcl-w (Cat #2724) and β-actin (Cat #4970) were purchased from Cell Signaling Technology. The relative band intensity was measured using ImageJ software and normalized to β-actin.

The target of series [7] is T1, Bcl-xL. The series is described as follows: Bcl-xL protein degradation in Jurkat cells (immunoblot). Type of series: cell-based. Particulars: 16 h. Here is the method: as §3
For series [8], the system named is WI-38 NC. Description: Senolytic activity, cell viability (PrestoBlue HS), WI-38 NC. Type of series: cell-based. The settings on record: Homo sapiens, 72 h. Here is the method: as §1
In series [9] the test system is WI-38 irradiation-induced senescent cells (IR-SC). The series is described as follows: Senolytic activity, cell viability (PrestoBlue HS), WI-38 IR-SC. Type of series: cell-based. Particulars: Homo sapiens, 72 h. Summed up:
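WI-38 and HUVEC were made senescent by 20 Gy x-ray irradiation and used 10–15 days later. Senescent cells were exposed to increasing degrader concentrations for 72 h. Viability was read with PrestoBlue HS.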

In series [10] the test system is HUVEC NC. Description: Senolytic activity, cell viability (PrestoBlue HS), HUVEC NC. Type of series: cell-based. Here is the method: as §1

Turning to `CC1(C)CCC(c2ccc(Cl)cc2)=C(CN2CCN(c3ccc(C(=O)NS(=O)(=O)c4ccc(N[C@H](CCN5CCOCC5)CSc5ccccc5)c(S(=O)(=O)C(F)(F)F)c4)cc3)CC2)C1` [ABT-263, navitoclax], in [1], the dose-limiting thrombocytopenia result is “dose-limiting thrombocytopenia has been observed”. For the same compound, in series [2], the “efficacy in killing venetoclax resistant CLL cells” value is reported as “high efficacy”.

Take `CN(C)CC[C@H](CSc1ccccc1)Nc1ccc(S(=O)(=O)NC(=O)c2ccc(N3CCN(Cc4ccccc4-c4ccc(Cl)cc4)CC3)cc2)cc1[N+](=O)[O-]` [ABT-737]: the dose-limiting thrombocytopenia entry in [1] was “dose-limiting thrombocytopenia has been observed”.

As to `Cc1c(S(C)(=O)=O)c(-c2cc(F)cc(N3CCN(c4ccc(NS(=O)(=O)c5ccc(N[C@H](CCN6CCC(O)CC6)CSc6ccccc6)c(S(=O)(=O)C(F)(F)F)c5)cc4)CC3)c2)c(-c2ccc(Cl)cc2)n1C(C)C` [BM-1197], the dose-limiting thrombocytopenia entry in [1] was “dose-limiting thrombocytopenia has been observed”.

Consider `C[C@@]1(CN2CCC(CN3CCN(c4ccc5c(c4)CN(C4CCC(=O)NC4=O)C5=O)CC3)CC2)CCC(c2ccc(Cl)cc2)=C(CN2CCN(c3ccc(C(=O)NS(=O)(=O)c4ccc(N[C@H](CCN5CCCOCC5)CSc5ccccc5)c(S(=O)(=O)C(F)(F)F)c4)cc3)CC2)C1` (stereo partly drawn) [Compound 11, N-((4-(((R)-4-(1,4-oxazepan-4-yl)-1-(phenylthio)butan-2-yl)amino)-3-((trifluoromethyl)sulfonyl)phenyl)sulfonyl)-4-(4-(((4R)-4′-chloro-4-((4-((4-(2-(2,6-dioxopiperidin-3-yl)-1-oxoisoindolin-5-yl)piperazin-1-yl)methyl)piperidin-1-yl)methyl)-4-methyl-3,4,5,6-tetrahydro-[1,1′-biphenyl]-2-yl)methyl)piperazin-1-yl)benzamide], for which the EC50 in series [3] is less than 1 nM; in series [4] it was less than 1 nM; in series [5], less than 1 nM; in series [8], greater than 10000 nM; in [9], 1 to 10 nM. Also, the “degradation of Bcl-xL” value in series [6] and in [7] was “degrade Bcl-xL in a dose-dependent manner” each time.

In the case of `C[C@@]1(CN2CCC(CN3CCCN(c4ccc5c(c4)CN(C4CCC(=O)NC4=O)C5=O)CC3)CC2)CCC(c2ccc(Cl)cc2)=C(CN2CCN(c3ccc(C(=O)NS(=O)(=O)c4ccc(N[C@H](CCN5CCCOCC5)CSc5ccccc5)c(S(=O)(=O)C(F)(F)F)c4)cc3)CC2)C1` (stereo partly drawn) [Compound 44, N-((4-(((R)-4-(1,4-oxazepan-4-yl)-1-(phenylthio)butan-2-yl)amino)-3-((trifluoromethyl)sulfonyl)phenyl)sulfonyl)-4-(4-(((4R)-4′-chloro-4-((4-((4-(2-(2,6-dioxopiperidin-3-yl)-1-oxoisoindolin-5-yl)-1,4-diazepan-1-yl)methyl)piperidin-1-yl)methyl)-4-methyl-3,4,5,6-tetrahydro-[1,1′-biphenyl]-2-yl)methyl)piperazin-1-yl)benzamide], the concentration giving a half-maximal response (EC50) in [3] is less than 1 nM; in [4], less than 1 nM; in series [5] it was less than 1 nM; in [8], greater than 10000 nM; in [9], 1 to 10 nM. In addition, the “Senolytic Activity EC50 (72 hr), HUVEC NC” value (“Senolytic Activity EC50” for short) in series [10] is on record as “++ (100-10 μM)”. Also, the “degradation of Bcl-xL” value in series [6] and in series [7] was “degrade Bcl-xL in a dose-dependent manner” each time.

On to `C[C@@]1(CN2CCC(c3ccc4c(c3)CN(C3CCC(=O)NC3=O)C4=O)CC2)CCC(c2ccc(Cl)cc2)=C(CN2CCN(c3ccc(C(=O)NS(=O)(=O)c4ccc(N[C@H](CCN5CCCOCC5)CSc5ccccc5)c(S(=O)(=O)C(F)(F)F)c4)cc3)CC2)C1` (stereo partly drawn) [Compound 128, N-((4-(((R)-4-(1,4-oxazepan-4-yl)-1-(phenylthio)butan-2-yl)amino)-3-((trifluoromethyl)sulfonyl)phenyl)sulfonyl)-4-(4-(((4R)-4′-chloro-4-((4-(2-(2,6-dioxopiperidin-3-yl)-1-oxoisoindolin-5-yl)piperidin-1-yl)methyl)-4-methyl-3,4,5,6-tetrahydro-[1,1′-biphenyl]-2-yl)methyl)piperazin-1-yl)benzamide], for which the EC50 was less than 1 nM in [3], less than 1 nM in series [4], less than 1 nM in [5] and 1 to 10 nM in series [9]. Besides, the “Senolytic Activity EC50” value in [10] is “++ (100-10 μM)”. For the same compound, the “degradation of Bcl-xL” value in series [6] and in series [7] was “degrade Bcl-xL in a dose-dependent manner” each time.

Turning to `C[C@@]1(CN2CCC(CN3CCN(c4ccc5c(c4)C(=O)N(C4CCC(=O)NC4=O)C5)CC3)CC2)CCC(c2ccc(Cl)cc2)=C(CN2CCN(c3ccc(C(=O)NS(=O)(=O)c4ccc(N[C@H](CCN5CCCOCC5)CSc5ccccc5)c(S(=O)(=O)C(F)(F)F)c4)cc3)CC2)C1` (stereo partly shown) [Compound 134], the EC50 was less than 1 nM in series [3], less than 1 nM in series [4], less than 1 nM in series [5] and 1 to 10 nM in [9]. Moreover, in series [10], the “Senolytic Activity EC50” value was “++ (100-10 μM)”.

For the compound `C[C@@]1(CN2CCCN(c3ccc4c(c3)CN(C3CCC(=O)NC3=O)C4=O)CC2)CCC(c2ccc(Cl)cc2)=C(CN2CCN(c3ccc(C(=O)NS(=O)(=O)c4ccc(N[C@H](CCN5CCCOCC5)CSc5ccccc5)c(S(=O)(=O)C(F)(F)F)c4)cc3)CC2)C1` (stereo partly drawn) [Compound 135, N-((4-(((R)-4-(1,4-oxazepan-4-yl)-1-(phenylthio)butan-2-yl)amino)-3-((trifluoromethyl)sulfonyl)phenyl)sulfonyl)-4-(4-(((4R)-4′-chloro-4-((4-(2-(2,6-dioxopiperidin-3-yl)-1-oxoisoindolin-5-yl)-1,4-diazepan-1-yl)methyl)-4-methyl-3,4,5,6-tetrahydro-[1,1′-biphenyl]-2-yl)methyl)piperazin-1-yl)benzamide], the concentration giving a half-maximal response (EC50) in series [3] was less than 1 nM; in series [4], less than 1 nM; in series [5] it was less than 1 nM; in [9], 10 to 100 nM. Also, the “Senolytic Activity EC50” value in series [10] is “++ (100-10 μM)”.

For `CN(C)CC#Cc1ccc(OCCCc2sc(N3CCc4cccc(C(=O)Nc5nc6ccccc6s5)c4C3)nc2C(=O)O)c(F)c1` [Compound A-1155463], the dose-limiting thrombocytopenia entry in [1] is given as “dose-limiting thrombocytopenia has been observed”.
